Values after ≈ are worked out from the molar mass of the structure shown. Values joined by “and” are separate entries in the source; they are usually repeats but may differ in a detail not shown here. Equal entries are not always repeated. Where two headings read alike, the source gives them in different places.
What was measured:
cat papillary muscle = details: cited from earlier work
Mab abscessus ATCC 19977 = experiment: MIC against Mab abscessus ATCC 19977; type: cell-based, Mycobacterium abscessus subsp. abscessus; details: Mycobacteroides abscessus; for MIC50: ATCC19977, 72 h, 3 days

SMILES: CCCCCCCCC(C#N)(CCCN(C)CCc1ccc(OC)c(OC)c1)c1ccc(OC)c(OC)c1 (stereo not drawn) [PhA2]
- ED50 (concentration to reduce maximal contractility of the papillary muscle by 50%) (cat papillary muscle): 130 µM
- MIC90 (Mab abscessus ATCC 19977; ATCC19977, 7H9 broth (first value), read-out: MIC90 Mab abscessus ATCC 19977): 85 µM (≈ 44.6 µg/mL)
- MIC50 (Mab abscessus ATCC 19977; 7H9 medium (first value of cell)): 54 µM (≈ 28.3 µg/mL)
- MIC50 (Mab abscessus ATCC 19977; CA-MHB medium (second value of cell)): 19 µM (≈ 9.97 µg/mL)
- MIC90 (Mab abscessus ATCC 19977; ATCC19977, Mab abscessus, read-out: MIC90 abscessus): 85 µM and 45 µg/mL
- MIC90 (Mab abscessus ATCC 19977; ATCC19977, camH broth (second value), read-out: MIC90 Mab abscessus ATCC 19977): 26 µM (≈ 13.6 µg/mL)

— paper PMC12281142, “A potent phenylalkylamine disrupts mycobacterial membrane bioenergetics and augments bactericidal activity of bedaquiline” (iScience, 2025)
